{"source": "patent US20060136140A1", "about": "“Method for identification and functional characterization of agents which modulate ion channel activity” (priority 2004, published 2006)", "key": {"HERG K+ channel [1]": {"biological_target": "T1, HERG K+ channel (Homo sapiens, UniProt Q12809)", "T1 sequence (Q12809 whole entry)": "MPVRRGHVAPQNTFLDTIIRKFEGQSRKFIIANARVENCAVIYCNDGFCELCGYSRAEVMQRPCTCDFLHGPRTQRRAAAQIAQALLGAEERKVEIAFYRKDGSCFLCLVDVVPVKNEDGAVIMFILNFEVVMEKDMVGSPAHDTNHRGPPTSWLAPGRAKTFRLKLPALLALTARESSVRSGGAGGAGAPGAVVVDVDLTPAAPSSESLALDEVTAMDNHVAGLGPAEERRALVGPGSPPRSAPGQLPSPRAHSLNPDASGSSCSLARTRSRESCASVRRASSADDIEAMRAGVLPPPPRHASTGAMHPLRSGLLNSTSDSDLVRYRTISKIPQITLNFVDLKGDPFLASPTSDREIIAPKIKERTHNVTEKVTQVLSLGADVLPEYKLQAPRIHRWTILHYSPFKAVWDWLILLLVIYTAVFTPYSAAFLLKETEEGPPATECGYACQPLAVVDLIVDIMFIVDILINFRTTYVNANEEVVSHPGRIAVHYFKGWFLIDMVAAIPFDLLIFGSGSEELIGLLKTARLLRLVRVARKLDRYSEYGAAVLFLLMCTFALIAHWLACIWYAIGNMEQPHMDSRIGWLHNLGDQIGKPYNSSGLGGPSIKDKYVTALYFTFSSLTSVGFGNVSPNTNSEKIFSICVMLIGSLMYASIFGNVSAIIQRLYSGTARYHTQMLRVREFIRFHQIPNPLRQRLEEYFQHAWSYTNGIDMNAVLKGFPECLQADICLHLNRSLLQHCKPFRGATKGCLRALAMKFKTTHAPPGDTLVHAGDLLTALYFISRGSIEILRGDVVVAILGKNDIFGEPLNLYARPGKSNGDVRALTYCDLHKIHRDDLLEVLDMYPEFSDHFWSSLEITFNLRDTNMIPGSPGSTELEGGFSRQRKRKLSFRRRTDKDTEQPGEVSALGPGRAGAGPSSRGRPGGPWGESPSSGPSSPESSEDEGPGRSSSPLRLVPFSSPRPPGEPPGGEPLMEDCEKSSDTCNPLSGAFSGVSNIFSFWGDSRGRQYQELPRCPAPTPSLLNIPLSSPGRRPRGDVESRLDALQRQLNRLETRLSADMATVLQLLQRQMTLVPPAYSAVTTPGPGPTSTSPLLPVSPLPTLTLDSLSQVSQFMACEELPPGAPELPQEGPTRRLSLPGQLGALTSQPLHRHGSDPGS", "procedure": "Cell functional assay using atomic absorption detection—Rubidium flux out of HERG-transfected CHO cells was characterized using a Shimadzu atomic absorption system. The amount of rubidium in the extracellular and intracellular compartments was determined after depolarization with 50 mM KCl, following a 3-minute incubation with test sample. The atomization buffer included 0.1% […]/1% HNO3 to suppress ionization of rubidium.\nMinor modification of the published protocol was necessary due to different expression levels of the HERG protein in recombinant cells.\nTwo injections per sample are made into a Shimadzu AA and if the cv reaches 10%, a third injection is performed; the computer selects the two closer values."}, "HERG K+ channel [2]": {"biological_target": "T1, HERG K+ channel", "procedure": "Cell functional assay using membrane potential dye—A membrane potential dye-based functional assay based on the HERG-expressing CHO cells has been developed. This assay was performed on the same library in parallel with the radioligand and AA-based functional assay. HERG-expressing CHO cells were plated as for the AA assay, except they were loaded with […] DiBAC4 instead of RbCl. Test samples or controls were added inside a Molecular Devices FlexStation and readings were taken over a 25 minute time frame.\nMembrane Potential Assay Procedure—100 uL of 250,000 cells/mL in media were added to a 96-well assay plate and cultured overnight. The cells were washed with Hanks/HEPES buffer with 2 g/L of glucose (loading buffer) and 100 uL of warmed loading buffer was added. 80 uL of the FLIPR Membrane Potential dye (Molecular Devices; dissolved in loading buffer) was then added and the samples incubated for at 45 min at 37° C. Drugs (10× final concentration) in loading buffer were run along with no-drug controls. […] […] Maximum response plateau is expected at approximately 7 minutes. This value will be used for EC50 calculation. […] For the other “actives”, IC50 values will be determined in this assay and at 1 or 2 concentrations in the Rb^+ flux assay.\nOne whole cell based functional assay we employed was based on the voltage sensitive dye DiBac4, using a detection method originally developed by Dr. Vince Groppi of Pharmacia-Upjohn FLIPR and FlexStation fluorescence detection systems. Cells expressing ion channels like HERG protein are hyperpolarized in the resting state. Inhibition of ion channel activities allows cells to return to normal potential. As the cell membrane becomes more positive, dye migrates into cell membrane, increasing the quantum efficiency of the dye and thus increasing fluorescence. […] Large number of compounds may be readily tested in either 96- or 384-well format. The mechanism of detection is based on the dye translocation in response to changes of the membrane environment. In certain circumstances, it may be desirable to perform confirmatory assays.", "remark": "listed apart in the source"}, "HERG potassium current": {"biological_target": "HERG potassium current (Homo sapiens, UniProt Q12809)", "sequence (Q12809 whole entry)": "as above", "conditions": "cited from earlier work"}, "HERG K+ channel [3]": {"biological_target": "T1, HERG K+ channel", "remark": "listed apart in the source"}, "HERG protein": {"biological_target": "HERG protein (Homo sapiens, UniProt Q12809)", "sequence (Q12809 whole entry)": "as above", "quoted_text": "Membrane preparations and ligand binding assays—Frozen cell pellets were first thawed and homogenized in 10 to 20 ml of assay buffer. An aliquot was taken for protein determination and the remaining homogenate was centrifuged (48,000×g, 10 min., 4° C.). According to the determined protein concentration, the resultant pellet was suspended in Heylen's buffer and added to radioligand and test compound. […] Bound radioactivity was determined by liquid scintillation spectroscopy.\nSources of radioligand—Various different radioligands were used in order to identify candidates for a given binding site."}, "[4]": {"conditions": "radiolabeled form, wild type vs recombinant CHO cells"}}, "note": "“Also recorded” adds a separate entry of the source. Like-named read-outs stand apart in the source and are kept apart here. No end group written: not given here.", "data": [{"compound": "CC(C)NCC(O)c1ccc(NS(C)(=O)=O)cc1", "note": "(racemic) [sotalol, (+/−)sotalol]", "values": [{"measurement": "activity in the assay using atomic absorption", "setting": "HERG K+ channel [1]", "value": "modestly active"}, {"measurement": "activity in the dye-based assay", "setting": "HERG K+ channel [2]", "value": "did not exhibit any activity"}]}, {"compound": "CC[C@H]1OC(=O)[C@H](C)[C@@H](O[C@H]2C[C@@](C)(OC)[C@@H](O)[C@H](C)O2)[C@H](C)[C@@H](O[C@@H]2O[C@H](C)C[C@H](N(C)C)[C@H]2O)[C@](C)(OC)C[C@@H](C)C(=O)[C@H](C)[C@@H](O)[C@]1(C)O", "note": "[Clarithromycin]", "values": [{"measurement": "IC50", "setting": "HERG potassium current", "value": 45.7, "unit": "µM"}]}, {"compound": "Fc1ccc(C(OCCN2CCN(CCCc3ccccc3)CC2)c2ccc(F)cc2)cc1", "note": "[GBR12909]", "values": [{"measurement": "activity in all three assays", "setting": "HERG K+ channel [3]", "value": "consistent and relatively potent activity"}]}, {"compound": "c1ccc(CCCN2CCN(CCOC(c3ccccc3)c3ccccc3)CC2)cc1", "note": "[GBR12935]", "values": [{"measurement": "activity in all three assays", "setting": "HERG K+ channel [3]", "value": "consistent and relatively potent activity"}]}, {"compound": "COC(=O)[C@H]1[C@@H](c2ccc(F)cc2)C[C@@H]2CC[C@H]1N2C", "note": "[WIN-35428]", "values": [{"measurement": "binding of radiolabeled ligand, specificity for the recombinant protein", "setting": "HERG protein; [4]", "value": "None of these compounds indicated sufficient specificity"}]}, {"compound": "O=C(CCCN1CCC(O)(c2ccc(Cl)cc2)CC1)c1ccc(F)cc1", "note": "[[^3H]-Haloperidol]", "values": [{"measurement": "binding of radiolabeled ligand, specificity for the recombinant protein", "setting": "HERG protein", "value": "high binding levels with both the wild type and the recombinant CHO cells"}]}, {"compound": "O=C(CCCN1CCC(O)(c2ccc(Cl)cc2)CC1)c1ccc(F)cc1", "note": "[haloperidol, Haloperidol]", "values": [{"measurement": "inhibition of HERG channel (Rb+ efflux), dose response", "setting": "HERG K+ channel [1]", "value": "completely inhibited"}]}, {"compound": "COC(=O)C1=C(C)NC(C)=C(C(=O)OCCN(C)Cc2ccccc2)C1c1cccc([N+](=O)[O-])c1", "note": "(centres unmarked) [nicardipine, Nicardipine]", "values": [{"measurement": "activity in the assay using atomic absorption", "setting": "HERG K+ channel [1]; 10^−5 M, room temperature", "value": "modestly active"}, {"measurement": "activity in the dye-based assay", "setting": "HERG K+ channel [2]; 10^−5 M, room temperature", "value": "lack of functional activity; also recorded: did not exhibit any activity"}, {"measurement": "activity in the dye-based assay", "setting": "HERG K+ channel [2]; 10^−5 M, room temperature, listed as Nicardipine", "value": "lacked activity"}]}, {"compound": "O=c1[nH]c2ccccc2n1C1CCN(CCCC(c2ccc(F)cc2)c2ccc(F)cc2)CC1", "note": "[pimozide, Pimozide]", "values": [{"measurement": "inhibition of HERG channel (Rb+ efflux), dose response", "setting": "HERG K+ channel [1]", "value": "completely inhibited"}, {"measurement": "activity in all three assays", "setting": "HERG K+ channel [3]", "value": "consistent and relatively potent activity"}]}, {"compound": "[^125I]-BeKm-1: custom preparation of the iodinated scorpion toxin (RPTDIKCSESYQCFPVCKSRFGKTNGRCVNGFCDCF; ends and bridges not checked; also: 125I iodinated, site not given here; UniProt Q9BKB7 22-57, looked up)", "values": [{"measurement": "binding of radiolabeled ligand, specificity for the recombinant protein", "setting": "HERG protein; [4]", "value": "did not observe sufficient binding"}]}]}
